Reference: paper PMC4290723 (British Journal of Pharmacology, 2014)
Read-outs that look alike come from different tables or passages of the source.

Target: T1, RoDH4 (also named RDH16) (Homo sapiens, UniProt O75452)
T1 sequence (O75452 1-317): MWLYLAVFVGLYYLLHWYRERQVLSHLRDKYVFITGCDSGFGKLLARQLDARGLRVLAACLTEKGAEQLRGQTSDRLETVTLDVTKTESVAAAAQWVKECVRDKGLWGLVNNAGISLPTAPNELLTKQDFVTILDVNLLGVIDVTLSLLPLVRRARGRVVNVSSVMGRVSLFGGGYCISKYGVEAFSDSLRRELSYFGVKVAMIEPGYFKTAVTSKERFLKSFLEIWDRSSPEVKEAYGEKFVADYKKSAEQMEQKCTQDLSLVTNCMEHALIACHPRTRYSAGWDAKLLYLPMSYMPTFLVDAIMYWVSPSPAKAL
Test: single-concentration ([…]) inhibition of allopregnanolone oxidation by membranes of RoDH4-transfected HEK293 cells
Format: cell-based

Row | SMILES | remaining activity at 240 µM (HEK293, read-out: % control at 240 μM) [%] | remaining activity at 240 µM (HEK293; read-out: % control at 240 μM) [%]
1 | CN(C)CCCN1c2ccccc2CCc2ccccc21 [imipramine] | 25.45 ± 0.04 | 
2 | NCCC(Oc1ccc(C(F)(F)F)cc1)c1ccccc1 (centres unmarked) [norfluoxetine] |  | 37.8 ± 0.95
